pEC50, pIC50, pKi: −log10 of the molar value. Residues, ends and D or L forms follow the SMILES beside them.
Experiments:
[1] = Half life in human serum; assay type: ADME, cell-free
Beta-secretase 1 = Beta-secretase 1 (Homo sapiens, UniProt P56817); test: Inhibition of BACE-1 (unknown origin)
[2] = molecular target: Delta-type opioid receptor (Homo sapiens, UniProt P41143)
Description: Agonist activity at delta opioid receptor (unknown origin) expressed in CHO cells

[3] = molecular target: angiotensin-converting enzyme (Homo sapiens, UniProt P12821); test: Drug metabolism assessed as angiotensin converting enzyme (unknown origin)-mediated Gly3-Phe4 cleavage by measuring half life; assay type: ADME
[4] = molecular target: D(2) dopamine receptor (Homo sapiens) (UniProt P14416); test: Agonist activity at human D2 receptor expressed in NIH/3T3 cells co-expressing beta-galactosidase assessed as increase in beta-galactosidase activity at 10 uM incubated for 5 days by spectrophotometry relative to control; assay type: cell-based
Hamster = test: Protection against HLE-induced acute lung damage in hamster; assay type: functional; conditions: Cricetinae
[5] = Stability in human plasma assessed as parent compound remaining at 4 hrs; assay type: ADME, cell-free; conditions: read-out: Stability
[6] = molecular target: Kappa-type opioid receptor (Homo sapiens, UniProt P41145); test: Agonist activity at kappa opioid receptor (unknown origin) expressed in CHO cells; assay type: cell-based
Mu-type opioid receptor = Mu-type opioid receptor (Homo sapiens, UniProt P35372); test: Agonist activity at mu opioid receptor (unknown origin) expressed in CHO cells; assay type: cell-based
[7] = Stability in rat plasma assessed as parent compound remaining at 4 hrs; assay type: ADME, cell-free; conditions: read-out: Stability

Delta-type opioid receptor, sequence (P41143 whole entry): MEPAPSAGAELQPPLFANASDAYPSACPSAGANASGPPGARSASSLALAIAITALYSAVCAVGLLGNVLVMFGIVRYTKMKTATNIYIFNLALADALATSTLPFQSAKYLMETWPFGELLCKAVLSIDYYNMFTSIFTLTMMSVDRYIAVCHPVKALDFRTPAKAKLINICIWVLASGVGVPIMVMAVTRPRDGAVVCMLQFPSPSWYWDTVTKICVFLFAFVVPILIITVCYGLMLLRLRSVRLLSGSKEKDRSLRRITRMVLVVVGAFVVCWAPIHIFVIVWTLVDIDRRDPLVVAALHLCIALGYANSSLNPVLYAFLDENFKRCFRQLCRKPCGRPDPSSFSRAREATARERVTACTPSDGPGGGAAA
Mu-type opioid receptor, sequence (P35372 whole entry): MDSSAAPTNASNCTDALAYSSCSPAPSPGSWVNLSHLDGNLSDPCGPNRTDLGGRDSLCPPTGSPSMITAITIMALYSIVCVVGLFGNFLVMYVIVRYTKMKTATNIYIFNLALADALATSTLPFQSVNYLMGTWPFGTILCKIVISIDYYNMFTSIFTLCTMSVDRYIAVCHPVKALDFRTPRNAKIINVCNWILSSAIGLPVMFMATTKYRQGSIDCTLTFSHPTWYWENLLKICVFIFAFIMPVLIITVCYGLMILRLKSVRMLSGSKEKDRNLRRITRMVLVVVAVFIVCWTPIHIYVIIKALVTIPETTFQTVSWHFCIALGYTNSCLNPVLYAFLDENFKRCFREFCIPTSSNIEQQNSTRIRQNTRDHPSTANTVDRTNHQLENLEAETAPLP
angiotensin-converting enzyme, sequence (P12821 whole entry): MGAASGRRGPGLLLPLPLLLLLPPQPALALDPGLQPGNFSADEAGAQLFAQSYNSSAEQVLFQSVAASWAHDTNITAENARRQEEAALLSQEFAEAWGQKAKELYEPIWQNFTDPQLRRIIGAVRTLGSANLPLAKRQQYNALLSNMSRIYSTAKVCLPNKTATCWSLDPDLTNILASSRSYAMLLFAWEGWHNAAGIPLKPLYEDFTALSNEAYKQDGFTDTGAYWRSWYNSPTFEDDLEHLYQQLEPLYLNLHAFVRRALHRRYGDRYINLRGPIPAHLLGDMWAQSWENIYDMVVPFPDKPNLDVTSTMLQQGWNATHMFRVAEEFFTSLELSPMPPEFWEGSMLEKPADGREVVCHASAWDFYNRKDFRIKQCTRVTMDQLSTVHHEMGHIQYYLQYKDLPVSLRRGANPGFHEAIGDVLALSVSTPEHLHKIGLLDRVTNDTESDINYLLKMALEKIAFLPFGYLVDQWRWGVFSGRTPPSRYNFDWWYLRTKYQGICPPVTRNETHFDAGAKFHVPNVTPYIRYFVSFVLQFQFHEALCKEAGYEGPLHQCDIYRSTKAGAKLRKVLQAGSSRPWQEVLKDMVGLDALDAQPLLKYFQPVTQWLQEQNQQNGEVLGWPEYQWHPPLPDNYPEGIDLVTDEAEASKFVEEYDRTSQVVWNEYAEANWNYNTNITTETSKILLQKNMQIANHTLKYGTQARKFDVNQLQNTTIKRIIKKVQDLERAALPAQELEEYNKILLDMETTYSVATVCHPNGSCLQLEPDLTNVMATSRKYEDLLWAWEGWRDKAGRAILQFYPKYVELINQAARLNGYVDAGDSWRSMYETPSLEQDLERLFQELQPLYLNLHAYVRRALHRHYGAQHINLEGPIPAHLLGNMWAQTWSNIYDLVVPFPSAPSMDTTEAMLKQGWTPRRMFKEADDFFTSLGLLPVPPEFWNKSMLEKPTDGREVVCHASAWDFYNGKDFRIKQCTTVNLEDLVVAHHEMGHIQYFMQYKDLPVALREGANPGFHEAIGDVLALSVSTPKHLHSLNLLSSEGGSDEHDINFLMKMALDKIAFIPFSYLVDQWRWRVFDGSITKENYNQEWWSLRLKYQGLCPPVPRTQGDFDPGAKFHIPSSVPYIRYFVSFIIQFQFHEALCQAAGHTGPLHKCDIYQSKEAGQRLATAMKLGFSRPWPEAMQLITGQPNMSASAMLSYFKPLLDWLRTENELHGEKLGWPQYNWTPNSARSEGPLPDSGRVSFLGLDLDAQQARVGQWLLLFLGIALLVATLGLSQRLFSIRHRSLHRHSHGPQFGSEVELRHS
D(2) dopamine receptor (Homo sapiens), sequence (P14416 whole entry): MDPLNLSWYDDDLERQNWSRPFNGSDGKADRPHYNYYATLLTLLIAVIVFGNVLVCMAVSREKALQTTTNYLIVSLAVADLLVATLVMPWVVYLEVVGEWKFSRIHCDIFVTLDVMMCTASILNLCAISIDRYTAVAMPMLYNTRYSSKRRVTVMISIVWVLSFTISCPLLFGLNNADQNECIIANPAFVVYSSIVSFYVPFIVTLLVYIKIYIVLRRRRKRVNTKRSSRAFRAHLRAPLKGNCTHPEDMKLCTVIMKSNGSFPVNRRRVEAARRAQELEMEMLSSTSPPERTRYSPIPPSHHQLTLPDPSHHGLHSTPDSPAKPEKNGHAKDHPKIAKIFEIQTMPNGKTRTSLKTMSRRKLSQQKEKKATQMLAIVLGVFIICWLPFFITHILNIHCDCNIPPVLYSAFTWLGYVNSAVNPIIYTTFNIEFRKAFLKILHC
Kappa-type opioid receptor, sequence (P41145 whole entry): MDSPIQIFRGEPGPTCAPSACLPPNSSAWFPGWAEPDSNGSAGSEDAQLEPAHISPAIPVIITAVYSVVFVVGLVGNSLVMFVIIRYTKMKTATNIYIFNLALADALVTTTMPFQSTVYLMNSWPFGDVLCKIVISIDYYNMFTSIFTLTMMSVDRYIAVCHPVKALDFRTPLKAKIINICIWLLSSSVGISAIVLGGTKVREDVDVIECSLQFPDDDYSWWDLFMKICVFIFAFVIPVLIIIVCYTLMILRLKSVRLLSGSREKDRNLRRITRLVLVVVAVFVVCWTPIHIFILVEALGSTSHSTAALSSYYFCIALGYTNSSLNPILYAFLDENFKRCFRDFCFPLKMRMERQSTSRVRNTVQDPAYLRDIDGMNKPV
Beta-secretase 1, sequence (P56817 whole entry): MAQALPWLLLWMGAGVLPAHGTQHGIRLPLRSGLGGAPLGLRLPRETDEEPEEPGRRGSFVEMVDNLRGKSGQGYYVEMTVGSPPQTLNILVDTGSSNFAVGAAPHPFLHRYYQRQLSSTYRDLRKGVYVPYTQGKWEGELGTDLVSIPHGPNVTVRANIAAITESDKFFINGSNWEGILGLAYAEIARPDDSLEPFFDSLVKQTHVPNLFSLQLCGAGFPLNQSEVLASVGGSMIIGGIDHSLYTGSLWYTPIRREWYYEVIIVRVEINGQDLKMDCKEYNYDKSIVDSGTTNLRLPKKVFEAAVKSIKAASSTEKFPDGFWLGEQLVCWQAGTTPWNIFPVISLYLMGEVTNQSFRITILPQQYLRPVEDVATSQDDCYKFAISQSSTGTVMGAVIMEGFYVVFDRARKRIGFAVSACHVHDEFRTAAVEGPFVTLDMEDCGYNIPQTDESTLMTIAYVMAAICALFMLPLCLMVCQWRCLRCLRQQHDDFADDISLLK

SMILES: CC(C)C[C@H](NC(=O)[C@H](Cc1ccccc1)NC(=O)CNC1(CNC(=O)[C@@H](N)Cc2ccc(O)cc2)COC1)C(=O)O.O=C(O)C(F)(F)F
- half-life [1]: 18 h

SMILES: COC(=O)[C@@H]1C[C@H](NC(=O)[C@@H](NC(=O)C[C@H](O)[C@H](Cc2cc(F)cc(F)c2)NC(=O)C(O)c2ccccc2-c2ccccc2)C(C)C)C[C@H](C(=O)OC)C1 (stereo partly drawn)
- pIC50 (Beta-secretase 1): 6.92

SMILES: CC(C)C[C@H](NC(=O)[C@@H](/C=C(\F)CNC(=O)CNC(=O)[C@@H](N)Cc1ccc(O)cc1)Cc1ccccc1)C(=O)O
- pEC50 [2]: 7.37

SMILES: CC(C)C[C@H](NC1([C@H](Cc2ccccc2)NC(=O)CNC(=O)CNC(=O)[C@@H](N)Cc2ccc(O)cc2)COC1)C(=O)O.O=C(O)C(F)(F)F
- half-life [1]: 0.433 h
- pKi [2]: 7.37

SMILES: CC(C)C[C@H](NC(=O)[C@H](Cc1ccccc1)NC(=O)CNC(=O)CNC(=O)[C@@H](N)Cc1ccc(O)cc1)C(=O)O [ENKEPHALIN]
- half-life [3]: 2.17 h

SMILES: CC(C)C[C@H](NC(=O)[C@@H]1CCCN1)C(=O)NCC(N)=O (H-Pro-Leu-Gly-NH2)
- Activity [4]: 146%

SMILES: CC(C)C[C@H](NC(=O)[C@H](Cc1ccccc1)NC(=O)CNC(=O)CNC1([C@@H](N)Cc2ccc(O)cc2)COC1)C(=O)O.O=C(O)C(F)(F)F
- half-life [1]: 3.2 h

SMILES: CC(C)C(NC(=O)Cn1c(-c2ccc(F)cc2)ncc(N)c1=O)C(=O)C(F)(F)F (stereo not drawn)
- ED50 (Hamster): 7.5 mg/kg

SMILES: Cc1ccc(C[C@H](N)/C(F)=C/CC(=O)NCC(=O)N[C@@H](Cc2ccccc2)C(=O)N[C@@H](CC(C)C)C(=O)O)cc1
- remaining at 4 h [5]: 68%
- pEC50 [6]: < 8.00
- pEC50 (Mu-type opioid receptor): 7.22
- pEC50 [2]: 8.30
- remaining at 4 h [7]: 76%

SMILES: CC(C)C[C@H](NC(=O)[C@H](Cc1ccccc1)NC1(CNC(=O)CNC(=O)[C@@H](N)Cc2ccc(O)cc2)COC1)C(=O)O.O=C(O)C(F)(F)F
- half-life [1]: 0.25 h
- pKi [2]: 6.80

SMILES: CC(C)C[C@H](NC(=O)[C@H](Cc1ccccc1)NC(=O)CNC(=O)CNC([C@@H](N)Cc1ccc(O)cc1)C(F)(F)F)C(=O)O (mixture of isomers)
- pEC50 [2]: < 8.00

SMILES: CC(C)C[C@H](NC(=O)[C@@H](/C=C/CNC(=O)CNC(=O)[C@@H](N)Cc1ccc(O)cc1)Cc1ccccc1)C(=O)O
- pEC50 [2]: 6.23

— ChEMBL document CHEMBL4396923, “Applications of amide isosteres in medicinal chemistry” (Bioorg Med Chem Lett, 2019)
